For orientation: IC50 means the concentration at which inhibition is half-maximal. Usually MIC stands for the smallest concentration in the dilution series that meets the test's criterion for growth inhibition. Read a low MIC as inhibition by little substance.

The values that follow come from patent US9221791B2, “Metalloenzyme inhibitor compounds” (Viamet Pharmaceuticals, Inc., priority 2011, dated 2015).

For data set [1], the system named is Septoria tritici (ATCC 26517). Kind of data set: Minimum Inhibitory Concentration (MIC) (Septoria tritici), CLSI-based microdilution. It is filed as cell-based. The settings on record: S. tritici ATCC 26517; 22° C. for seven days; 50% reduction in growth. Summed up:
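S. tritici (ATCC 26517) tested by CLSI-style broth microdilution for filamentous fungi in RPMI-1640/MOPS, 2-fold series 16–0.016 μg/mL (11 concentrations, 2% DMSO before inoculum), duplicate rows. Inoculum ~5×10^4 cfu/mL; plates incubated 7 days at 22 °C in the dark, static; growth scored on a rating scale.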
For orientation: Dilution methods test growth across graded concentrations, often in twofold steps.

A further data set concerns the target CYP3A4 (Homo sapiens (Human), UniProt P08684). The data set is described as follows: Inhibition of Liver Cytochrome P450 Enzymes (pooled human liver microsomes), CYP3A4. The format is in vitro ADME. The procedure:
B. Inhibition of Liver Cytochrome P450 Enzymes
Solutions of each test compound were separately prepared at concentrations of 20000, 6000, 2000, 600, 200, and 60 μM by serial dilution with DMSO:MeCN (50:50 v/v). The individual test compound solutions were then diluted 20-fold with DMSO:MeCN:deionized water (5:5:180 v/v/v) to concentrations of 1000, 300, 100, 30, 10, and 3 μM. Mixtures of isozyme inhibitors (sulfaphenazole, tranylcypromine, and ketoconazole as specific inhibitors of isozymes 2C9, 2C19, and 3A4, respectively) were prepared containing each inhibitor at concentrations of 6000, 2000, 600, 200, 60, 20, 6, and 2 μM by serial dilution with DMSO:CH3CN (50:50 v/v). […]
Pooled human liver microsome suspension (20 mg/mL) was diluted with phosphate buffer to obtain a 5 mg/mL suspension. […] Separate stock solutions of each substrate were prepared in DMSO:MeCN (50:50 v/v), mixed, and diluted in phosphate buffer to obtain a single solution containing each substrate at five times its experimentally determined Km concentration. […]
Substrate solution and microsome suspension were combined in a 1:1 volume ratio, mixed, and distributed to reaction wells of a PCR plate. […] A portion of the supernatant was analyzed by gradient reverse-phase HPLC with detection by electrospray ionization triple quadrupole mass spectrometry in the positive ion mode. […]

Another data set has as its system C. albicans. The data set is described as follows: Minimum Inhibitory Concentration (MIC) (C. albicans), CLSI M27-A2. To be noted: Candida albicans; approximately 48 h at 35±1° C.; about 50% growth reduction. It is filed as cell-based. Here is the method: A. Minimum Inhibitory Concentration (MIC) (C. albicans) Compounds of the present disclosure were assessed for their ability to inhibit the growth of common strains of fungus, C. albicans using a standardized procedure (CLSI M27-A2). Stock solutions of the test compounds and standards were prepared in DMSO at 1,600 μg/mL (C. albicans). Eleven, serial, one-half dilutions of compounds were prepared in 96-well plates in RPMI+MOPS. The assay concentration ranges were 8-0.001 μg/mL (C. albicans). Cell suspensions of C. albicans were prepared and added to each well at concentrations of approximately 3.7×10^3 colony-forming-units per milliliter (cfu/mL). All testing was in duplicate. The inoculated plates were incubated for approximately 48 h at 35±1° C. At the completion of incubation the wells of each plate were evaluated visually for the presence of fungal growth. […] For QC purposes C. krusei isolate ATCC 6258 (4.0×10^3 cfu/mL) was included in the VOR assay.

≈ marks a conversion by molar mass, not a printed value.

CYP3A4, sequence (P08684 whole entry): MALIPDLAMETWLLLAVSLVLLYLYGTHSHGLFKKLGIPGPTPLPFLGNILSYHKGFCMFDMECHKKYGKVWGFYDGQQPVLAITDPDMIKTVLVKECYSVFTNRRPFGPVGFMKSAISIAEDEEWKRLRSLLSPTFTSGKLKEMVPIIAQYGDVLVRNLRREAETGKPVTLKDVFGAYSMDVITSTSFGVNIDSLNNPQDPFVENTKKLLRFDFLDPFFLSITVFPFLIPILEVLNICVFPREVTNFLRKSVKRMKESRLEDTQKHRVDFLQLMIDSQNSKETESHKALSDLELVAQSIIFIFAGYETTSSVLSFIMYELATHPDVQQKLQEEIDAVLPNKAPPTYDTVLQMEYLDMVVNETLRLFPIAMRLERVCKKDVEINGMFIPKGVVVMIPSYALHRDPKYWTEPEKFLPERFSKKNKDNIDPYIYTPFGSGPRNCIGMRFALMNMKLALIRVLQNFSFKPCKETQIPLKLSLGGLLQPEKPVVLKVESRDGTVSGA

Turning to `OC(Cn1cnnn1)(c1ccc(F)cc1F)C(F)(F)c1ccc(-c2ccc(F)nc2)cn1` (stereo not drawn) [Compound 31, 2-(2,4-Difluorophenyl)-1,1-difluoro-1-(6′-fluoro-[3,3′-bipyridin]-6-yl)-3-(1H-tetrazol-1-yl)propan-2-ol], the “Septoria Rating (MIC)” value in data set [1] is on record as “C (>1.5-4)”. The same compound yielded an IC50 at CYP3A4 of 33 µM. The compound further gave an MIC with C. albicans of 0.062 µg/mL (≈ 0.138 µM).
